{"source": "ChEMBL document CHEMBL1201862", "about": "“PubChem BioAssay data set” (2004)", "key": {"[1]": {"biological_target": "T1, Apoptotic protease-activating factor 1 (Homo sapiens, UniProt O14727)", "T1 sequence (O14727 whole entry)": "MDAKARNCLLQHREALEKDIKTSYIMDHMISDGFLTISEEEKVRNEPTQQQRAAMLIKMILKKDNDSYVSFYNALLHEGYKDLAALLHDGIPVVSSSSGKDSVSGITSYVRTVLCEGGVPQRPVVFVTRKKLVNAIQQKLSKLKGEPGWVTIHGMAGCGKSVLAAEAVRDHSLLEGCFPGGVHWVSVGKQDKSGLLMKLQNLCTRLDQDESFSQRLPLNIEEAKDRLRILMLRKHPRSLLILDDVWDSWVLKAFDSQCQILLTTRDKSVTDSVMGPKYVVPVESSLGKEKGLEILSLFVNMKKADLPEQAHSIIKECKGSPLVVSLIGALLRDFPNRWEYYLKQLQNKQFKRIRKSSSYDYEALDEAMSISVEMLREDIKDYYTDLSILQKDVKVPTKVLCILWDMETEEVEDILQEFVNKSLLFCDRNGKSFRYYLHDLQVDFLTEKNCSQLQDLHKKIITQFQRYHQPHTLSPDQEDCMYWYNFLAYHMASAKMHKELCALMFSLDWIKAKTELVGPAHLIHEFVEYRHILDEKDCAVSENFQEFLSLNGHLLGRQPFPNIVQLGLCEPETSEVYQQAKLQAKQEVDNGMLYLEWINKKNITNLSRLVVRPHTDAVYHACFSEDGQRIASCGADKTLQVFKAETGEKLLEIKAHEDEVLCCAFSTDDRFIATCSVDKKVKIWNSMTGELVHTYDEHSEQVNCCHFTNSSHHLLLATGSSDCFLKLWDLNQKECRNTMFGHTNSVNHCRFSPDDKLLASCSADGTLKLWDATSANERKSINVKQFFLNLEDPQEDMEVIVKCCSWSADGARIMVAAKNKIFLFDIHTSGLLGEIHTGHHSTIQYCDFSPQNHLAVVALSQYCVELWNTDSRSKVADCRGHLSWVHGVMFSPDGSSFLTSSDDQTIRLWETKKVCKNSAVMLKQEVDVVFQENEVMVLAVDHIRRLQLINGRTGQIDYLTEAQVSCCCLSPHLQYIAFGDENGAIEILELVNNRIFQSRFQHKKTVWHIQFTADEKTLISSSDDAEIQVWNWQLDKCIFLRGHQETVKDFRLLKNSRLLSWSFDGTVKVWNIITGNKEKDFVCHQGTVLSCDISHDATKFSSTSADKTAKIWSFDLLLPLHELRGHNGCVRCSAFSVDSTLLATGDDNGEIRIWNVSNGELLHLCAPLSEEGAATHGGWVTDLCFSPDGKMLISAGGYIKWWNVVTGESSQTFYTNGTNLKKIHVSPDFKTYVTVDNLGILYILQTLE", "assay_type": "functional"}, "HEK293": {"system": "HEK293", "test": "cells", "assay_type": "functional, cell-based", "settings": "Homo sapiens"}, "[2]": {"test": "Luminescence Cell-Based Dose Response HTS to Identify Inhibitors of 5'UTR Stem-Loop Driven Prion Protein mRNA Translation in H4 Neuroglioblastoma Cells. [Related pubchem assays: 1827 (Project Summary), 1813 (Primary HTS)]", "assay_type": "functional"}, "Cysteine protease ATG4B": {"biological_target": "T2, Cysteine protease ATG4B (Homo sapiens, UniProt Q9Y4P1)", "T2 sequence (Q9Y4P1 whole entry)": "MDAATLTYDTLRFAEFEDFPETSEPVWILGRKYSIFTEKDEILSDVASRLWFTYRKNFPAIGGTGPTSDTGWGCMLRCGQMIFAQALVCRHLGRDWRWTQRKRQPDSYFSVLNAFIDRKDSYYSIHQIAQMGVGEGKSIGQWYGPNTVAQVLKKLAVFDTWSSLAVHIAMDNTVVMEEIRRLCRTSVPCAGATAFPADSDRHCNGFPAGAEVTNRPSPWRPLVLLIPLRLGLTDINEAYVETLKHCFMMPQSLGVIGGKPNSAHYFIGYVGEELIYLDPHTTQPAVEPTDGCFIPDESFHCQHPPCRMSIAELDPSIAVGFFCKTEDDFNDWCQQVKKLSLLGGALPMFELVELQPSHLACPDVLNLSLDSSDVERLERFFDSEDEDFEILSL", "assay_type": "functional"}, "[3]": {"biological_target": "Death-associated protein kinase 3 (Homo sapiens, UniProt O43293)", "sequence (O43293 whole entry)": "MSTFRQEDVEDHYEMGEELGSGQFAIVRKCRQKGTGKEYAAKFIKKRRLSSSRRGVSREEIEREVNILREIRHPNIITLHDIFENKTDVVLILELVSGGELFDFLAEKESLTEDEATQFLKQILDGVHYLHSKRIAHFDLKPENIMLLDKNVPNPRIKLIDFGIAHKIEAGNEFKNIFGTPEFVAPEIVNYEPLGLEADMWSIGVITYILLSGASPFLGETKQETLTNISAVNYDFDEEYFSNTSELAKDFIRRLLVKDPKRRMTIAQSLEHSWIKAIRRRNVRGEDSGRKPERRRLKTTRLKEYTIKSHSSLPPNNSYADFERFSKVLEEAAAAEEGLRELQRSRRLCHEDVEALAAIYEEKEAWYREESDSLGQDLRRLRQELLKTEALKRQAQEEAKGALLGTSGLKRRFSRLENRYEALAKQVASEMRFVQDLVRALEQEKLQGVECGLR", "assay_type": "functional"}, "[4]": {"biological_target": "5'-AMP-activated protein kinase catalytic subunit alpha-1 (Homo sapiens, UniProt Q13131)", "assay_type": "functional"}, "[5]": {"biological_target": "Serine/threonine-protein kinase BRSK1 (Homo sapiens, UniProt Q8TDC3)", "sequence (Q8TDC3 whole entry)": "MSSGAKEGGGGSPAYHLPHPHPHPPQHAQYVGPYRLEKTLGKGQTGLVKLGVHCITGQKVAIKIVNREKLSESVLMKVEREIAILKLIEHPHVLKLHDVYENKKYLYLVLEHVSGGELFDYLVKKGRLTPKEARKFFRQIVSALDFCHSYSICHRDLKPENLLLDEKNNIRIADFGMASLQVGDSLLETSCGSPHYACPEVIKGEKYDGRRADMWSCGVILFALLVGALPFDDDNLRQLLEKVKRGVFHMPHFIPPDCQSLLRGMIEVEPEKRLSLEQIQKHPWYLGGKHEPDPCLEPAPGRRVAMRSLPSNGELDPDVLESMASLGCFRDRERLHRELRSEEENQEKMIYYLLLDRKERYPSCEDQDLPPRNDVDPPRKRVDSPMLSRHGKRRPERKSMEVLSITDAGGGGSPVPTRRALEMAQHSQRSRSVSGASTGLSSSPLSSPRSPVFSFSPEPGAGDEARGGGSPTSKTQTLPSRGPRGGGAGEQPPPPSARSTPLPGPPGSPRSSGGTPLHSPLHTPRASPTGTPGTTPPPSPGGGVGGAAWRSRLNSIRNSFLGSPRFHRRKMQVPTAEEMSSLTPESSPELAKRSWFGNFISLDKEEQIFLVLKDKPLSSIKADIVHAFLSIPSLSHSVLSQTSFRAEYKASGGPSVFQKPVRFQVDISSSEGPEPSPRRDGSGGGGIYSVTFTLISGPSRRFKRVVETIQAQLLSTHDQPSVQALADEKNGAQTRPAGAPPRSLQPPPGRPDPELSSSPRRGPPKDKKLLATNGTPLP", "assay_type": "functional"}, "[6]": {"biological_target": "cGMP-dependent protein kinase 1 (Homo sapiens, UniProt Q13976)", "assay_type": "functional"}, "[7]": {"biological_target": "Serine/threonine-protein kinase PAK 4 (Homo sapiens, UniProt O96013)", "assay_type": "functional"}, "[8]": {"biological_target": "Serine/threonine-protein kinase PLK4 (Homo sapiens, UniProt O00444)", "assay_type": "functional"}, "[9]": {"biological_target": "Ribosomal protein S6 kinase beta-1 (Homo sapiens, UniProt P23443)", "sequence (P23443 whole entry)": "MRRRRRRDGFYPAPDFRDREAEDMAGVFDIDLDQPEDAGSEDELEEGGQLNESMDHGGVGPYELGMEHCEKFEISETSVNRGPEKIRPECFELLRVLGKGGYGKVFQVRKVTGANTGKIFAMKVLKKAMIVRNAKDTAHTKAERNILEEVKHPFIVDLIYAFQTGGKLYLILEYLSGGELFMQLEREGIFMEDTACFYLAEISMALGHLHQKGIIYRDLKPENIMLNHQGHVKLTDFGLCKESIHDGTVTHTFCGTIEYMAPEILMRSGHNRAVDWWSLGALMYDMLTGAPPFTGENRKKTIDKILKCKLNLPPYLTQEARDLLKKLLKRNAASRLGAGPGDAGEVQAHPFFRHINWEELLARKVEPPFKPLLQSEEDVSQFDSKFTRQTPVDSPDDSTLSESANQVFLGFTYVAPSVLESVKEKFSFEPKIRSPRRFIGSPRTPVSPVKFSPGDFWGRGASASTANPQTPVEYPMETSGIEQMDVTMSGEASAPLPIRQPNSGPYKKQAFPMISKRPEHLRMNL", "assay_type": "functional"}, "[10]": {"biological_target": "Fibroblast growth factor receptor 1 (Homo sapiens, UniProt P11362)", "sequence (P11362 whole entry)": "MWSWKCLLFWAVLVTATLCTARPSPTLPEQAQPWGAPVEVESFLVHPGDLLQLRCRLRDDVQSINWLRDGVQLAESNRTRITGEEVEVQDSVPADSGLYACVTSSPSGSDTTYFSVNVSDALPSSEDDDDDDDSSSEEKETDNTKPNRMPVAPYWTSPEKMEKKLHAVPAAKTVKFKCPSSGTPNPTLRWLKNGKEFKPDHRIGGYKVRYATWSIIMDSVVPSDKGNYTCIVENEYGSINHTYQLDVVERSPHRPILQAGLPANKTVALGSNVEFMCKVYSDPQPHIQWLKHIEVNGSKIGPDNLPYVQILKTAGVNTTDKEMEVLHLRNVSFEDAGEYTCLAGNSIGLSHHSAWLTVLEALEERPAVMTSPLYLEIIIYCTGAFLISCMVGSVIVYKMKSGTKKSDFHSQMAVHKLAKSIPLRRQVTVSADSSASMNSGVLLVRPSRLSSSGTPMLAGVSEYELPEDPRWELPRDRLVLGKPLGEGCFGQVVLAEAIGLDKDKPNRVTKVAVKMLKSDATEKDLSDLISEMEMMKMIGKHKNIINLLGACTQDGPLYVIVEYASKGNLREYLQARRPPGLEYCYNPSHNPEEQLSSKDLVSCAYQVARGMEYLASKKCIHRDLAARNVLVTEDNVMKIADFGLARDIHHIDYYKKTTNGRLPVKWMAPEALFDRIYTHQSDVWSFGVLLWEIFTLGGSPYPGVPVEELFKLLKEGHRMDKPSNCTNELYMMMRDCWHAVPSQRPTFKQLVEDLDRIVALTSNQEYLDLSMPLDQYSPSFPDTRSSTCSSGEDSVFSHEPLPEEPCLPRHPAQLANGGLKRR", "assay_type": "functional"}, "[11]": {"biological_target": "Tyrosine-protein kinase Lyn (Homo sapiens, UniProt P07948)", "assay_type": "functional"}, "[12]": {"biological_target": "Dual specificity protein kinase CLK2 (Homo sapiens, UniProt P49760)", "sequence (P49760 whole entry)": "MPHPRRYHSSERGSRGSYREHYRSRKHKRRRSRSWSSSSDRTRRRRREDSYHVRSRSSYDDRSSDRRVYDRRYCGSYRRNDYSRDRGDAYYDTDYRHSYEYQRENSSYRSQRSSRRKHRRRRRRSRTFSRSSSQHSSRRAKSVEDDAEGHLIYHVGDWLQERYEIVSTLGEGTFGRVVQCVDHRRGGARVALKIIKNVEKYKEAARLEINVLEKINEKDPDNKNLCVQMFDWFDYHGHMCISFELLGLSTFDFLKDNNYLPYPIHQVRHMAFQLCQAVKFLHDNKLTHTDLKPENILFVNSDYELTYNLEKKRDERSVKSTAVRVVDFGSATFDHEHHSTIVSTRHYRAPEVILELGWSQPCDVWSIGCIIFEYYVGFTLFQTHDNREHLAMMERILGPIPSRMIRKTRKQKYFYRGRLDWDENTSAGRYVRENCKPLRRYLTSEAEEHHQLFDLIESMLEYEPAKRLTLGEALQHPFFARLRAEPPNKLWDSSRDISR", "assay_type": "functional"}, "[13]": {"biological_target": "Mitogen-activated protein kinase 1 (Homo sapiens, UniProt P28482)", "assay_type": "functional"}, "Ephrin type-A receptor 2": {"biological_target": "Ephrin type-A receptor 2 (Homo sapiens, UniProt P29317)", "sequence (P29317 whole entry)": "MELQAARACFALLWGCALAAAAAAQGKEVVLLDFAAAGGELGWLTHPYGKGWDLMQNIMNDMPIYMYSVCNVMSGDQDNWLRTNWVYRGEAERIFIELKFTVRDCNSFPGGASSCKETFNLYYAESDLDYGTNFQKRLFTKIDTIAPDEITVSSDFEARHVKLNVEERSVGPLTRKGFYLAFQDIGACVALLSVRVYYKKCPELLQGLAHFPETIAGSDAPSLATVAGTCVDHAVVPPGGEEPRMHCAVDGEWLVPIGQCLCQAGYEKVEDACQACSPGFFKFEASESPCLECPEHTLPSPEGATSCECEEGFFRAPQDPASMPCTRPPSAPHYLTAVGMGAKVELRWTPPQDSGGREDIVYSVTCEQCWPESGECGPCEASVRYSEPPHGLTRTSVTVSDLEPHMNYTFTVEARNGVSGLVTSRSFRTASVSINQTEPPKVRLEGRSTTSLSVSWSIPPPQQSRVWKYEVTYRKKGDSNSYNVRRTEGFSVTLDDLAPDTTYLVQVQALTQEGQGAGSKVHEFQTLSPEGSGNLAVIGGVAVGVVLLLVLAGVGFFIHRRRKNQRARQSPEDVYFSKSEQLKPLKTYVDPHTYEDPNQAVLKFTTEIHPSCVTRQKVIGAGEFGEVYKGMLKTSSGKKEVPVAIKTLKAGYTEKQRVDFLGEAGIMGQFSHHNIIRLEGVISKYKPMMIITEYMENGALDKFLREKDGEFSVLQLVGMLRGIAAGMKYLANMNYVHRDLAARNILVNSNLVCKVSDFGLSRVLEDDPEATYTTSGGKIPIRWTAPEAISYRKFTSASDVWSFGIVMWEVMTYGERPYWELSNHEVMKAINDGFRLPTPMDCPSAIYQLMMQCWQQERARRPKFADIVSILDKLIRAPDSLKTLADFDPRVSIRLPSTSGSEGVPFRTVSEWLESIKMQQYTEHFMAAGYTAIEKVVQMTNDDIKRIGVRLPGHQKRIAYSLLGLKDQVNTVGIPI", "assay_type": "functional"}, "[14]": {"biological_target": "Fibroblast growth factor receptor 3 (Homo sapiens, UniProt P22607)", "sequence (P22607 whole entry)": "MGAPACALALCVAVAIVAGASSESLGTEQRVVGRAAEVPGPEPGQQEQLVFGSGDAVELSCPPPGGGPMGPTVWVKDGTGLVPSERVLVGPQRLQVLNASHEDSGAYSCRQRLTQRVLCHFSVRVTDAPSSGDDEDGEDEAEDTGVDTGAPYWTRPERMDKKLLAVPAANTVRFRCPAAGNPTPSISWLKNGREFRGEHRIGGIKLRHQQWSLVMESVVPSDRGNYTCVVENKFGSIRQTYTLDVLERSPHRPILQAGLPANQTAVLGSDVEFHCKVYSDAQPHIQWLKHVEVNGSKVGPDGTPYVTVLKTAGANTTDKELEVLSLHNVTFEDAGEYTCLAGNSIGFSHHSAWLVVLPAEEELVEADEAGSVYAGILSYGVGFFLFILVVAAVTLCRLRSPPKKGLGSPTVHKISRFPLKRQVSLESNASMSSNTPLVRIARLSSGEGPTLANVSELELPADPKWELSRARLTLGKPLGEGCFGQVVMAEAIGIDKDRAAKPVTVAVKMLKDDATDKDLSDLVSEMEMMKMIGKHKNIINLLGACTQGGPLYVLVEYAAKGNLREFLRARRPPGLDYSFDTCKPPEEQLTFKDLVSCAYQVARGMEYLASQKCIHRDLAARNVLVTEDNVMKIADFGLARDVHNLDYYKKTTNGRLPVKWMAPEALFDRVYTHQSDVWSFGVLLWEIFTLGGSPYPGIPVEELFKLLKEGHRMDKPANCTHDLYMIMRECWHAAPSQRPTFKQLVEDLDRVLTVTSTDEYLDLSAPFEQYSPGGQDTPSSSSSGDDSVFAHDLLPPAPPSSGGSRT", "assay_type": "functional"}, "[15]": {"test": "HPDE-C7 pancreatic duct cell viability loss – fluorescence, HTS (AID 430)", "assay_type": "functional, cell-based", "settings": "Homo sapiens"}, "[16]": {"test": "fluconazole-exposed Candida albicans growth modulators – fluorescence, retest, confirmation (AID 2467)", "assay_type": "functional, cell-based"}}, "note": "The source made the active and inactive calls.", "data": [{"compound": "O=C1C=C(N2CCOCC2)c2ccccc2C1=O", "values": [{"measurement": "IC50", "setting": "[1]", "value": "1.27 µM (active)"}, {"measurement": "IC50", "setting": "HEK293", "value": "> 20 µM (inactive)"}, {"measurement": "EC50", "setting": "[2]", "value": "> 120 µM (not active)"}, {"measurement": "IC50", "setting": "Cysteine protease ATG4B", "value": "7.07 µM (active)"}]}, {"compound": "N#Cc1ccc2[nH]c(O)c(-c3ccc(CN4CCOCC4)cn3)c2c1", "note": "[AZD-1080]", "values": [{"measurement": "Ki", "setting": "[3]", "value": "> 3.98 µM (inactive)"}, {"measurement": "Ki", "setting": "[4]", "value": "> 2.51 µM (inactive)"}, {"measurement": "Ki", "setting": "[5]", "value": "> 7.94 µM (inactive)"}, {"measurement": "Ki", "setting": "[6]", "value": "> 2 µM (inactive)"}, {"measurement": "Ki", "setting": "[7]", "value": "> 5.01 µM (inactive)"}, {"measurement": "Ki", "setting": "[8]", "value": "> 3.98 µM (inactive)"}, {"measurement": "Ki", "setting": "[9]", "value": "> 6.31 µM (inactive)"}, {"measurement": "Ki", "setting": "[10]", "value": "> 3.98 µM (inactive)"}, {"measurement": "Ki", "setting": "[11]", "value": "> 1.58 µM (inactive)"}, {"measurement": "Ki", "setting": "[12]", "value": "> 5.01 µM (inactive)"}, {"measurement": "Ki", "setting": "[13]", "value": "> 7.94 µM (inactive)"}, {"measurement": "Ki", "setting": "Ephrin type-A receptor 2", "value": "> 3.16 µM (inactive)"}, {"measurement": "Ki", "setting": "[14]", "value": "> 2 µM (inactive)"}]}, {"compound": "CCc1oc2ccccc2c1C(=O)c1cc(Br)c(O)c(Br)c1", "note": "[BENZBROMARONE]", "values": [{"measurement": "EC50", "setting": "[15]", "value": "5.71 µM (active)"}, {"measurement": "EC50", "setting": "[16]", "value": "0.059 µM (active)"}]}]}
